Where two headings read alike, the source gives them in different places.
Key:
Format in all cases: in vivo
[1] = test system: STEME; experiment: Pre-emergence biological efficacy (Table 3); conditions: after 13 days; for evaluation (100=total damage to plant; 0=no damage to plant): 1000 g/ha; for pest or weed control at 1000 g/ha: 312 h, read-out: evaluation (100=total damage to plant; 0=no damage to plant)
In short: (§1)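 Seeds sown in standard soil and sprayed one day later with compound formulated in acetone/AMA solvent-emulsifier, diluted in 0.2% Genapol X080 to the final dose. Plants grown in glasshouse at 24/18° C, 15 h light, 50% humidity. Damage scored after 13 days (0=none, 100=total).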

[2] = test system: ZEAMX; experiment: Pre-emergence biological efficacy (Table 3); conditions: 1000 g/ha, after 13 days; for plant injury at 1000 g/ha: 312 h, read-out: evaluation (100=total damage to plant; 0=no damage to plant)
In short: as §1

[3] = test system: ABUTH; experiment: Pre-emergence biological efficacy (Table 3); conditions: after 13 days; for evaluation (100=total damage to plant; 0=no damage to plant): 1000 g/ha; for pest or weed control at 1000 g/ha: Abutilon theophrasti, 312 h, read-out: evaluation (100=total damage to plant; 0=no damage to plant)
In short: as §1

[4] = test system: IPOHE; experiment: Pre-emergence biological efficacy (Table 3); conditions: 1000 g/ha, after 13 days; for pest or weed control at 1000 g/ha: Ipomoea hederacea, 312 h, read-out: evaluation (100=total damage to plant; 0=no damage to plant)
In short: as §1

[5] = test system: AMARE; experiment: Pre-emergence biological efficacy (Table 3); conditions: 1000 g/ha, after 13 days; for pest or weed control at 1000 g/ha: Amaranthus retroflexus, 312 h, read-out: evaluation (100=total damage to plant; 0=no damage to plant)
In short: as §1

[6] = test system: ECHCG; experiment: Pre-emergence biological efficacy (Table 3); conditions: 1000 g/ha, after 13 days; for pest or weed control at 1000 g/ha: Echinochloa crus-galli, 312 h, read-out: evaluation (100=total damage to plant; 0=no damage to plant)
In short: as §1

[7] = test system: weeds and/or crops; experiment: Post-emergence biological efficacy (Table 4); conditions: 1000 g/ha, evaluated after 13 days; for pest or weed control at 1000 g/ha: 312 h
In short: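 Weeds and crops were grown 14 days in a glasshouse, then sprayed post-emergence with compound formulated in acetone/F50 and diluted in 0.2% Genapol X080 to the final dose. Damage was scored after 13 days on a 0–100 scale, where 100 is total damage.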

[8] = test system: AMARE; experiment: Biological efficacy, pre-emergence glasshouse test (Table 2); conditions: 1000 g/ha, after 12 days
Description: (§2) Seeds of a variety of test species were shown in unsterilised compost in small pots. After cultivation for one day (pre-emergence) or seven days (post-emergence) in controlled conditions in the glasshouse (at 24/16° C., day/night; 14 hours light; 65% humidity) the plants were sprayed with 1 mg of the active ingredient, formulated in 466 μl of a acetone/water/Tween 20 (49.75:49.75:0.5) solution, which is equivalent to 1000 g/ha. Once the foliage was dry, the pots were kept in the glasshouse (at 24/16° C., day/night; 14 hours light; 65% humidity), and were watered twice daily. After 12 days the test was evaluated and scored (100=total damage to plant, 0=no damage to plant).

[9] = test system: LOLPE; experiment: as above; conditions: 1000 g/ha, after 12 days
Description: as §2

[10] = test system: DIGSA; experiment: as above; conditions: 1000 g/ha, after 12 days
Description: as §2

[11] = test system: STEME; experiment: Biological efficacy, post-emergence glasshouse test (Table 2); conditions: 1000 g/ha, after 12 days
Description: as §2

[12] = test system: AMARE; experiment: as above; conditions: 1000 g/ha, after 12 days
Description: as §2

[13] = test system: LOLPE; experiment: as above; conditions: 1000 g/ha, after 12 days
Description: as §2

[14] = test system: DIGSA; experiment: as above; conditions: 1000 g/ha, after 12 days
Description: as §2

[15] = STEME, read-out: damage to plant STEME (100=total damage; 0=no damage)
[16] = ZEAMX, read-out: damage to plant ZEAMX (100=total damage; 0=no damage)
[17] = Abutilon theophrasti, ABUTH, read-out: damage to plant ABUTH (100=total damage; 0=no damage)
[18] = Amaranthus retroflexus, AMARE, read-out: damage to plant AMARE (100=total damage; 0=no damage)
[19] = Echinochloa crus-galli, ECHCG, read-out: damage to plant ECHCG (100=total damage; 0=no damage)
[20] = Ipomoea hederacea, IPOHE, read-out: damage to plant IPOHE (100=total damage; 0=no damage)

Row | SMILES | evaluation (100=total damage to plant; 0=no damage to plant) [1] | evaluation (100=total damage to plant; 0=no damage to plant) [2] | evaluation (100=total damage to plant; 0=no damage to plant) [3] | evaluation (100=total damage to plant; 0=no damage to plant) [4] | evaluation (100=total damage to plant; 0=no damage to plant) [5] | evaluation (100=total damage to plant; 0=no damage to plant) [6] | damage to plant AMARE (100=total damage; 0=no damage) ([7]; AMARE) | damage to plant ECHCG (100=total damage; 0=no damage) ([7]; ECHCG) | pest or weed control at 1000 g/ha [1] [%] | plant injury at 1000 g/ha [2] [%] | pest or weed control at 1000 g/ha [3] [%] | pest or weed control at 1000 g/ha [4] [%] | pest or weed control at 1000 g/ha [5] [%] | pest or weed control at 1000 g/ha [6] [%] | pest or weed control at 1000 g/ha [7, 15] [%] | pest or weed control at 1000 g/ha [7, 16] [%] | pest or weed control at 1000 g/ha [7, 17] [%] | pest or weed control at 1000 g/ha [7, 18] [%] | pest or weed control at 1000 g/ha [7, 19] [%] | pest or weed control at 1000 g/ha [7, 20] [%] | further results
1 | Nc1ccc(Cl)c(Cl)c1C(F)(F)C(=O)[O-].[Li+] [Compound 5-80, Lithium;2-(6-amino-2,3-dichloro-phenyl)-2,2-difluoro-acetate] | 0 | 0 | 0 | 0 | 0 | 0 | 20 | 0 |  |  |  |  |  |  |  |  |  |  |  |  | damage to plant IPOHE (100=total damage; 0=no damage) ([7]; IPOHE): 10; damage to plant STEME (100=total damage; 0=no damage) ([7]; STEME): 10; damage to plant ZEAMX (100=total damage; 0=no damage) ([7]; ZEAMX): 10
2 | N#Cc1ccccc1C(F)(F)C(=O)[O-].[Li+] [Compound 5-255] |  |  |  |  |  |  |  |  |  |  |  |  |  |  |  |  |  |  |  |  | score (100=total damage to plant, 0=no damage to plant) [8]: 20; score (100=total damage to plant, 0=no damage to plant) [9]: 0; score (100=total damage to plant, 0=no damage to plant) [10]: 0; score (100=total damage to plant, 0=no damage to plant) [11]: 70; score (100=total damage to plant, 0=no damage to plant) [12]: 70; score (100=total damage to plant, 0=no damage to plant) [13]: 0; score (100=total damage to plant, 0=no damage to plant) [14]: 0
3 | N.Nc1ccc(C(F)(F)C(=O)O)c(Cl)c1Cl [Compound 7-75, Ammonium;2-(4-amino-2,3-dichloro-phenyl)-2,2-difluoro-acetate] | 70 | 0 | 70 | 20 | 70 | 30 | 70 | 60 |  |  |  |  |  |  |  |  |  |  |  |  | damage to plant IPOHE (100=total damage; 0=no damage) ([7]; IPOHE): 20; damage to plant STEME (100=total damage; 0=no damage) ([7]; STEME): 90; damage to plant ZEAMX (100=total damage; 0=no damage) ([7]; ZEAMX): 10
4 | O=C(O)C(F)(F)c1cccc([N+](=O)[O-])c1Cl [Compound 7-237, Ammonium 2-(2-chloro-3-nitro-phenyl)-2,2-difluoro-acetate] |  |  |  |  |  |  |  |  | 0 | 0 | 10 | 50 | 0 | 0 | 0 | 0 | 0 | 50 | 10 | 60 | 
5 | O=C(O)C(F)(F)c1cccc(Cl)c1[N+](=O)[O-] [Compound 7-250, Ammonium 2-(3-chloro-2-nitro-phenyl)-2,2-difluoro-acetate] |  |  |  |  |  |  |  |  | 100 | 50 | 90 | 90 | 100 | 30 | 100 | 20 | 90 | 100 | 30 | 80 | 
6 | Nc1c(Cl)ccc(Cl)c1C(F)(F)C(=O)O [Compound 7-254, 2-(2-amino-3,6-dichlorophenyl)-2,2-difluoroacetic acid] |  |  |  |  |  |  |  |  | 30 | 10 | 40 | 10 | 20 | 0 | 60 | 20 | 30 | 50 | 0 | 30 | 
